Assay results from ChEMBL document CHEMBL5108044, “Discovery of a Novel Potent STAT3 Inhibitor HP590 with Dual p-Tyr705/Ser727 Inhibitory Activity for Gastric Cancer Treatment” (J Med Chem, 2022).
Activity calls are given as the source filed them. No cut-off for these calls is given here.

Key:
[1] = molecular target: T1, Signal transducer and activator of transcription 3 (Homo sapiens, UniProt P40763); experiment: Inhibition of STAT3 in human MKN-45 cells assessed as downregulation of cyclin D1 expression incubated up to 24 hrs by western blot analysis; format: cell-based; conditions: dose <= 40.0 nM, DDE = dose-dependent effect
T1 sequence (P40763 whole entry): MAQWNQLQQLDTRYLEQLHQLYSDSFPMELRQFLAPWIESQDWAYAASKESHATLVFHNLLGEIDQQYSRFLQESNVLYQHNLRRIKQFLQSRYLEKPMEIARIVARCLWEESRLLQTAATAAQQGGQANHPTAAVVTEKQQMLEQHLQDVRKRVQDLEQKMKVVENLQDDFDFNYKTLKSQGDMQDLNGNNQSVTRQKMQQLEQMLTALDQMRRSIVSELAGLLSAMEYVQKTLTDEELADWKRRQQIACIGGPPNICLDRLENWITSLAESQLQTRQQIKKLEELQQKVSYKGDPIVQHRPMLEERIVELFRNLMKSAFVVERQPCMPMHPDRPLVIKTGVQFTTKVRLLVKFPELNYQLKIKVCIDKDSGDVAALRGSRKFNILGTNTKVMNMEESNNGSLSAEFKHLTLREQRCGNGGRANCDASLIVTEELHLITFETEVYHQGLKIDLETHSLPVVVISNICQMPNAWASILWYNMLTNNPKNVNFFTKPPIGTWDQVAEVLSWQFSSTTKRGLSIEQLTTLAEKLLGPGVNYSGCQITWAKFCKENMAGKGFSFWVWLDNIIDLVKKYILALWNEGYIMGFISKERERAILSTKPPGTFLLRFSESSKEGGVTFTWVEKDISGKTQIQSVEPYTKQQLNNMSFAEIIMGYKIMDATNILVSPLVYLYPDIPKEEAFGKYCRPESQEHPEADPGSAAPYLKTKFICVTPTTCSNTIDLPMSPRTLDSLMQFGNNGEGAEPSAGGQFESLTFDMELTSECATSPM

[2] = molecular target: T1, Signal transducer and activator of transcription 3; experiment: Inhibition of STAT3 phosphorylation at Tyr705 residue in human MKN-45 cells upto 40 nM incubated upto 24 hrs by Western blotting analysis; format: cell-based
[3] = Antiproliferative activity against human HPNE cells assessed as cell viability measured upto 1 uM incubated for 72 hrs by MTS assay; format: toxicity, cell-based; conditions: htert-hpne
MKN-45 [4] = experiment: In vivo inhibition of STAT3 in human MKN-45 cells xenografted in BALB/c nude mouse assessed as reduction in cyclin D1 gene expression at 25 to 50 mg/kg, po qd administered for 5 weeks by Western blot analysis; format: functional, organism-based; conditions: dose 25-50 mg/kg
[5] = molecular target: Tyrosine-protein kinase JAK1 (Homo sapiens, UniProt P23458); experiment: Inhibition of JAK1 (unknown origin)
Tyrosine-protein kinase JAK1, sequence (P23458 whole entry): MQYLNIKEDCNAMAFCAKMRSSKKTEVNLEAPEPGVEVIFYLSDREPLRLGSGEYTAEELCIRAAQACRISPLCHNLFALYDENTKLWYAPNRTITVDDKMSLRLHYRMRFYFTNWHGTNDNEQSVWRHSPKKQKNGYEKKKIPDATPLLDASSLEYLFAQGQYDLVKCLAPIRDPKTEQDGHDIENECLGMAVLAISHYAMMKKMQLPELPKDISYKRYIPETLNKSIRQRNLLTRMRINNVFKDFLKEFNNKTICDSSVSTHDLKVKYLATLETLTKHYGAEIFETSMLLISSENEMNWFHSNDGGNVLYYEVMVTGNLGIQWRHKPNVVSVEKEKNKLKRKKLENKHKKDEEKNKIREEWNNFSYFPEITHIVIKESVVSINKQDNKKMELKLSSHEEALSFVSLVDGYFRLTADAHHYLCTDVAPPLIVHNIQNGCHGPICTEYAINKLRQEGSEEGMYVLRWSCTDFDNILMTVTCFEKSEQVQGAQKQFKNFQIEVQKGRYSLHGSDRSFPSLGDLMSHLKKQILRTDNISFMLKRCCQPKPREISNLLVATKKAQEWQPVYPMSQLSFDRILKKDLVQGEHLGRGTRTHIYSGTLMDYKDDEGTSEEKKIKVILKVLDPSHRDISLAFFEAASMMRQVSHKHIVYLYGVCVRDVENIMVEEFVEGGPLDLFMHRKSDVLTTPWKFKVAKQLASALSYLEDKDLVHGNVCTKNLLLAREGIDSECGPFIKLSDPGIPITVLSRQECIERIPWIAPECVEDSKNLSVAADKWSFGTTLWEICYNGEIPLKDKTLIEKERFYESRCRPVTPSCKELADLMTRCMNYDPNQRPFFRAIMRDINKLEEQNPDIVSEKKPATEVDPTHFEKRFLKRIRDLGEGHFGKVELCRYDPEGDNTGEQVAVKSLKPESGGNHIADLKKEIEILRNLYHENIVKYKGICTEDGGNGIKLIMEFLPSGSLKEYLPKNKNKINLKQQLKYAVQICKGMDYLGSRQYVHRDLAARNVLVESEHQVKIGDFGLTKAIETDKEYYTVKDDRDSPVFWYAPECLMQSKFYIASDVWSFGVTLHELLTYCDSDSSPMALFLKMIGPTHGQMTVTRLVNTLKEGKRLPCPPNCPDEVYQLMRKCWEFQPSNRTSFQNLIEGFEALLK

[6] = molecular target: T1, Signal transducer and activator of transcription 3; experiment: Inhibition of STAT3 in human AGS cells assessed as downregulation of Bcl2 expression at 10 to 40 nM incubated for 24 hrs by RT-PCR analysis; format: cell-based; conditions: dose 10-40 nM
MGC-803 = experiment: Potency index, ratio of IC50 for BBI608 to IC50 for test compound for antiproliferative activity against human MGC-803 cells assessed as reduction in cell viability incubated for 72 hrs by MTS assay; format: functional
MKN-45 [7] = experiment: Inhibition of mitochondrial respiration in STAT3 knockdown human MKN-45 cells assessed as maximal oxygen consumption rate incubated for 80 mins […]; format: functional, cell-based
[8] = molecular target: T1, Signal transducer and activator of transcription 3; experiment: Inhibition of STAT3 in human GES1cells assessed as downregulation of c-myc expression at 10 to 40 nM incubated for 24 hrs by RT-PCR analysis; format: cell-based; conditions: GES1, dose 10-40 nM
[9] = molecular target: T1, Signal transducer and activator of transcription 3; experiment: Inhibition of STAT3 in human AGS cells assessed as downregulation of Survivin expression at 10 to 40 nM incubated for 24 hrs by RT-PCR analysis; format: cell-based; conditions: dose 10-40 nM
AGS [10] = experiment: Induction of apoptosis in human AGS cells assessed as necrotic cells 10 nM incubated for 48 hrs by FITC-annexin V/propidium iodide staining based flow cytometry (reference value: 2.70%); format: functional
[11] = molecular target: T1, Signal transducer and activator of transcription 3; experiment: Inhibition of STAT3 in human MGC-803 cells assessed as downregulation of cyclin D1 expression up to 40 nM by western blot analysis; format: cell-based; conditions: time <= 24.0 hrs, TDE = time-dependent effect
[12] = Oral bioavailability in ICR mouse plasma at 10 mg/kg measured up to 24 hrs by LC-MS/MS analysis; format: ADME, organism-based
[13] = molecular target: T1, Signal transducer and activator of transcription 3; experiment: Binding affinity to human STAT3 transfected in MKN-45 cells assessed as change in melting temperature at 5 uM by thermal shift assay; format: cell-based
[14] = molecular target: T1, Signal transducer and activator of transcription 3; experiment: Inhibition of phosphorylated STAT3 nuclear translocation at Tyr705 residue in human MKN-45 cells measured at 5 to 40 nM by immunoblotting analysis; format: cell-based; conditions: dose 5-40 nM
[15] = Elimination half life in ICR mouse plasma at 10 mg/kg, po measured up to 24 hrs by LC-MS/MS analysis; format: ADME, organism-based; conditions: read-out: beta t1/2 (converted)
MKN-45 [16] = experiment: In vivo inhibition of STAT3 phosphorylation at Ser727 residue in human MKN-45 cells xenografted in BALB/c nude mouse at 25 to 50 mg/kg, po qd administered for 5 weeks by immunohistochemical analysis; format: functional, organism-based; conditions: dose 25-50 mg/kg
[17] = Cmax in ICR mouse plasma at 10 mg/kg, po measured up to 24 hrs by LC-MS/MS analysis; format: ADME, organism-based; parameters: dose 10 mg/kg, time < 24 hrs, route po
[18] = molecular target: T1, Signal transducer and activator of transcription 3; experiment: Inhibition of STAT3 in human MKN-45 cells assessed as downregulation of c-Myc expression incubated up to 24 hrs by western blot analysis; format: cell-based; conditions: dose <= 40.0 nM, DDE = dose-dependent effect
[19] = molecular target: T1, Signal transducer and activator of transcription 3; experiment: Inhibition of STAT3 phosphorylation at Ser727 residue in human MKN-45 cells incubated upto 24 hrs by Western blotting analysis; format: cell-based; conditions: dose <= 40.0 nM, DDE = dose-dependent effect
[20] = molecular target: Tyrosine-protein kinase JAK2 (Homo sapiens, UniProt O60674); experiment: Inhibition of JAK2 (unknown origin)
Tyrosine-protein kinase JAK2, sequence (O60674 whole entry): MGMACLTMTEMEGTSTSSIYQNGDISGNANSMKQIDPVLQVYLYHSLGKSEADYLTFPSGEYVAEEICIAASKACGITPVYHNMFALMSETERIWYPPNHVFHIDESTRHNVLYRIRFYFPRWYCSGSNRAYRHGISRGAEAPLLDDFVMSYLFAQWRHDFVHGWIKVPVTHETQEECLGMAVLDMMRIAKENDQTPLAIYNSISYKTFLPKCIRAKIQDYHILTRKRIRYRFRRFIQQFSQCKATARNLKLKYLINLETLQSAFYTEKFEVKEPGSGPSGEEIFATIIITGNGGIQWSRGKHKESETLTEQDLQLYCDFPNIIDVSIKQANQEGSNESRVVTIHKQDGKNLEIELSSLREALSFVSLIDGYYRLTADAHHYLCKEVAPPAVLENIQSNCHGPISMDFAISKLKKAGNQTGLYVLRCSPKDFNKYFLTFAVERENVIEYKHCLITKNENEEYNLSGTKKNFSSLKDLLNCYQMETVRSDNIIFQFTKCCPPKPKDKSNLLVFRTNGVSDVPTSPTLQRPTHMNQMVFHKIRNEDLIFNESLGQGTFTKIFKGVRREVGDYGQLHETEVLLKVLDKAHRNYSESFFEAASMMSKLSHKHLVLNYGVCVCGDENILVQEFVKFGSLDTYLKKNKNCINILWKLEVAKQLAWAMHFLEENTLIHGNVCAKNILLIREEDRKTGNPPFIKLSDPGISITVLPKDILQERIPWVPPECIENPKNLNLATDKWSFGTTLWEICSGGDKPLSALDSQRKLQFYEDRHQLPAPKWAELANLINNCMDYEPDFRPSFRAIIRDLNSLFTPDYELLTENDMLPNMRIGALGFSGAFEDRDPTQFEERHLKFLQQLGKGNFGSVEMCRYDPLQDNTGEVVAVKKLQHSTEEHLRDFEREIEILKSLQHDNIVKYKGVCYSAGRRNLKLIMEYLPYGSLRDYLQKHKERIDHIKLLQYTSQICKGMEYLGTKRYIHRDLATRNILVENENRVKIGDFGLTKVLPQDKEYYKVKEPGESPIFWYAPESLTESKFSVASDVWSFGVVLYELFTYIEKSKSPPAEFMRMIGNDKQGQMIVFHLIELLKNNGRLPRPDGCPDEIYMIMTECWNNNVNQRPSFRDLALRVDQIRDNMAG

AGS [21] = experiment: Induction of apoptosis in human AGS cells assessed as early apoptic cells 10 nM incubated for 48 hrs by FITC-annexin V/propidium iodide staining based flow cytometry (reference value: 0.55%); format: functional
[22] = molecular target: T1, Signal transducer and activator of transcription 3; experiment: Inhibition of STAT3 phosphorylation at Ser727 residue in human MKN-45 cells upto 40 nM by Western blotting analysis; format: cell-based; conditions: time <= 24.0 hrs, TDE = time-dependent effect
MKN-45 [23] = experiment: Inhibition of mitochondrial respiration in human MKN-45 cells assessed as maximal oxygen consumption rate at 1 to 100 nM incubated for 1 hr by Seahorse XF24 extracellular flux analyzer; format: functional, cell-based; conditions: dose 1-100 nM
MKN-45 [24] = experiment: In vivo inhibition of STAT3 in human MKN-45 cells xenografted in BALB/c nude mouse assessed as reduction in c-myc gene expression at 25 to 50 mg/kg, po qd administered for 5 weeks by Western blot analysis; format: functional, organism-based; conditions: dose 25-50 mg/kg
[25] = molecular target: T1, Signal transducer and activator of transcription 3; experiment: Inhibition of STAT3 phosphorylation at Tyr705 residue in human MKN-45 cells upto 40 nM by Western blotting analysis; format: cell-based; conditions: time <= 24.0 hrs, TDE = time-dependent effect
[26] = molecular target: T1, Signal transducer and activator of transcription 3; experiment: Inhibition of STAT3 in human GES1cells assessed as downregulation of Cyclin D1 expression at 10 to 40 nM incubated for 24 hrs by RT-PCR analysis; format: cell-based; conditions: GES1, dose 10-40 nM
AGS [27] = experiment: Induction of apoptosis in human AGS cells assessed as necrotic cells 5 nM incubated for 48 hrs by FITC-annexin V/propidium iodide staining based flow cytometry (reference value: 2.70%); format: functional
AGS [28] = experiment: Induction of apoptosis in human AGS cells assessed as viable cells at 5 nM incubated for 48 hrs by FITC-annexin V/propidium iodide staining based flow cytometry (reference value: 87.2%); format: functional; conditions: read-out: Activity
MKN-45 [29] = experiment: Inhibition of colony formation in STAT3 knockdown human MKN-45 cells assessed as reduction in number of colonies incubated for 5 to 7 days by crystal violet staining based assay; format: functional, cell-based; conditions: time 5-7 day
MKN-45 [30] = experiment: Antiproliferative activity against human MKN-45 cells assessed as cell viability incubated for 72 hrs by MTS assay; format: functional, cell-based; conditions: dose <= 100.0 nM, DDE = dose-dependent effect
MKN-45 [31] = experiment: Inhibition of mitochondrial respiration in STAT3 knockdown human MKN-45 cells assessed as basal oxygen consumption rate incubated for 80 mins […]; format: functional, cell-based
[32] = molecular target: T1, Signal transducer and activator of transcription 3; experiment: Inhibition of STAT3 phosphorylation at Tyr705 residue in human MGC-803 cells upto 40 nM incubated upto 24 hrs by Western blotting analysis; format: cell-based
AGS [33] = experiment: Induction of apoptosis in human AGS cells assessed as viable cells at 20 nM incubated for 48 hrs by FITC-annexin V/propidium iodide staining based flow cytometry (reference value: 87.2%); format: functional; conditions: read-out: Activity
GES1 = experiment: Antiproliferative activity against human GES1 cells assessed as cell viability measured upto 1 uM incubated for 72 hrs by MTS assay; format: toxicity, cell-based; conditions: ges1, 72 h
MKN-45 [34] = experiment: In vivo inhibition of STAT3 phosphorylation at Tyr705 residue in human MKN-45 cells xenografted in BALB/c nude mouse at 25 to 50 mg/kg, po qd administered for 5 weeks by immunohistochemical analysis; format: functional, organism-based; conditions: dose 25-50 mg/kg

inhibition [1]: Dde | inhibition [2]: 100% | IC50 [5]: > 10 µM | inhibition [6]: Active | inhibition [8]: Active | inhibition [11]: Tde | bioavailability [12]: 54.4% | Activity [13]: Active | inhibition [14]: Active | half-life [15]: 16 h | Cmax [17]: 529 ng/mL | inhibition [18]: Dde | inhibition [19]: Dde | IC50 [20]: > 10 µM | inhibition [22]: Tde | inhibition [25]: Tde | inhibition [26]: Active | inhibition [32]: 100%
SMILES: O=C(c1ccc(-c2noc(-c3ccc(C(F)(F)F)cc3)n2)cc1)N1CCN(Cc2ccc(OCC(F)(F)F)cc2)CC1
Activity [3]: Non-Toxic | inhibition (MKN-45 [4]): Active | Ratio IC50 (MGC-803): 30 | inhibition (MKN-45 [7]): Active | inhibition [9]: Active | Activity (AGS [10]): 4.79% | inhibition (MKN-45 [16]): Active | Activity (AGS [21]): 2.57% | inhibition (MKN-45 [23]): Active | inhibition (MKN-45 [24]): Active | Activity (AGS [27]): 3.96% | viability at 0.005 µM (AGS [28]): 85.7% | inhibition (MKN-45 [29]): Active | Activity (MKN-45 [30]): Dde | inhibition (MKN-45 [31]): Active | viability at 0.02 µM (AGS [33]): 50.3% | Activity (GES1): Non-Toxic | inhibition (MKN-45 [34]): Active
